Data as given in PMC7136483 (Frontiers in Pharmacology, 2020).
“And” between values parts separate entries of the source, which are not always exact repeats. Identical values can stand only once. Each block holds one molecule with its values, some of them ahead of it.

Experiments:
[1] = parameters: method as in Ahmad et al., 2010b; conditions: fixed in model, ref Ahmad et al., 2010b, cited from earlier work
[2] = cited from earlier work
[3] = target: T1, CYP2D6 (Homo sapiens, UniProt P10635); test: NLME PK model covariate: SSRI (paroxetine/fluoxetine) comedication (CYP2D6 inhibitors); assay type: in vivo; conditions: during strong CYP2D6-inhibitor comedication
T1 construct: endogenous in cells; host or cells: breast cancer patients (in vivo, clinical PK data)
T1 sequence (P10635 whole entry): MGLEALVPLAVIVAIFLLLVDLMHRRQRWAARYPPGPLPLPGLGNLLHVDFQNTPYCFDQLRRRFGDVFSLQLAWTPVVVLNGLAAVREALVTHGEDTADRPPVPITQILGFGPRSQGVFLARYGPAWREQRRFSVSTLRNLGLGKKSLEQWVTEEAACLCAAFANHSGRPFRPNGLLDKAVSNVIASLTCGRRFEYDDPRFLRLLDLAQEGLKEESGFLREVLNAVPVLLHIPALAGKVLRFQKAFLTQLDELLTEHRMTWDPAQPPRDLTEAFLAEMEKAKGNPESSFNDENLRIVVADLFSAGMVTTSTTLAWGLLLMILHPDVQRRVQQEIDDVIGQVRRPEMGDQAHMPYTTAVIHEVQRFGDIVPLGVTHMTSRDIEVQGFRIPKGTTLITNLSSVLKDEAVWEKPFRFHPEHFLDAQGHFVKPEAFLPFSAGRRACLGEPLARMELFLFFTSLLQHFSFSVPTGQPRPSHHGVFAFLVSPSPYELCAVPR
Protocol: (§1) Secondly, a covariate model refinement step was performed, selecting the most appropriate covariate functions for the preselected covariates, with respect to numerical and statistical evaluation criteria. Finally, the refined full covariate model was evaluated based on physiological plausibility of the estimated effect, statistical significance and clinical relevance criteria using advanced model evaluation techniques (Supplementary Material 1, see section “Advanced Model Evaluation Diagnostics”). To explore and quantify the reduction of unexplained variability upon introduction of covariate effects, the statistical model with the four levels of variability was exploited.

[4] = Joint parent-metabolite NLME PK model of tamoxifen and endoxifen (structural, statistical and age covariate estimates); assay type: in vivo, human
From the text: PK parameters for tamoxifen and endoxifen were simultaneously estimated.
The statistical model aimed to incorporate four levels of variability around the structural model. Thus, and due to the nature of the database, a nested hierarchy of random-effects components was set up comprising interstudy (ISV), interindividual (IIV), interoccasion (IOV), and residual unexplained variability (RUV) (see Supplementary Figure S1). While ISV and IIV characterize random deviations between different studies and patients, respectively, IOV describes the random variability within an individual patient across different occasions. The RUV captures the remaining variability across all observations.
IIV was evaluated on all structural PK parameters and implemented using exponential IIV models (Equation 1). Resulting individual PK parameters were assumed to arise from a log-normal distribution in which the ηik values are normally distributed with mean zero and variance estimate ωk2 .
While 27% of the patients had samples collected on one occasion (study day, i.e., one dosing interval = 1 day) only, 73% of patients in the PK database had samples collected on three to four occasions (i.e., 3–4 days) with rich sampling during one occasion (dosing interval) in studies 3–6.
For the RUV, a log-transformed both sides approach was applied (Equation 3).
Since tamoxifen and endoxifen PK were analyzed simultaneously, separate but correlated RUV terms were estimated.
A study effect was introduced as additional variability term on top of the random individual effect (IIV) (study hierarchically above individual level, see Supplementary Figure S1 and Equation 4) ([Laporte-Simitsidis et al., 2000]),
The covariate model was developed using a full covariate model approach ([Tunblad et al., 2008]; [Ravva et al., 2009]; [Gastonguay, 2011]): first, covariates were pre-selected based on specific criteria and introduced simultaneously into a full covariate model (for details see Supplementary Material 1, see section “Covariate Submodel Development”). Secondly, a covariate model refinement step was performed, selecting the most appropriate covariate functions for the preselected covariates, with respect to numerical and statistical evaluation criteria. Finally, the refined full covariate model was evaluated based on physiological plausibility of the estimated effect, statistical significance and clinical relevance criteria using advanced model evaluation techniques (Supplementary Material 1, see section “Advanced Model Evaluation Diagnostics”). To explore and quantify the reduction of unexplained variability upon introduction of covariate effects, the statistical model with the four levels of variability was exploited.
Furthermore, endoxifen PK parameter values (CL30/F = 5.1 L/h and VENDX/F = 400 L) were informed and used from a clinical study administering endoxifen only ([Ahmad et al., 2010b]).

[5] = Clinical PK database of six pooled tamoxifen studies: observed minimum steady-state concentrations
[6] = system: CYP2D6; test: NLME PK model covariate: CYP2D6 activity score on endoxifen formation; assay type: in vivo, human
From the text: To derive a patient’s CYP2D6 phenotype, the available genotype information, i.e., detected genetic polymorphisms (single nucleotide polymorphisms, SNPs, and copy number variants, CNVs), was translated via three steps: (1) From the reported nucleotide variation (wild-type ‘wt’ or altered nucleotide sequence ‘mut’) to a biallelic genotype, e.g., wt/mut: ^∗1/^∗41; (2) from the genotype to the activity score (AS), e.g., ^∗1/^∗41 → 1.5; (3) From the AS to the ‘traditional’ CYP2D6 phenotype category, e.g., 1.5 → normal metabolizer, gNM. […] Thus, each patient in the PK database was assigned a CYP2D6 activity score (seven AS categories from 0 to 3 in intervals of 0.5) and a respective CYP2D6 phenotype [four categories: poor (gPM, AS: 0), intermediate (gIM, AS: 0.5), normal (gNM, AS:1-2), and ultrarapid (gUM, […]) metabolizer; see Figure 1]. The prefix ‘g’ indicates the phenotype prediction from genotype.
as §1
CYP2D6 activity score The CYP2D6 AS is a multichotomous covariate with seven ordered categories from 0 to 3 (step size of 0.5). For each patient in the PK database, an AS was derived from the reported CYP2D6 genotype.
The AS was introduced as ordered categorical covariate applying a fractional change model with four categories representing the ‘traditional’ CYP2D6 phenotype classes investigating two different grouping types for the intermediate (IM) and normal (NM) metaboliser group (depending on whether AS=1 is classified as IM or NM, see Figure 1 in main text), or with six AS categories only grouping AS 2.5 and 3 (Equation 8). To model the CYP2D6 activity scores, fiveseparate categorical covariate effects (for AS subgroups: 0, 0.5, 1, 1.5 and 2.5-3) were estimated while AS=2 was set as reference category (i.e. for a typical patient with AS=2: CL23/F = θRef). An indicator variable XAS,i was coded as 1 for a patient belonging into the respective AS category or 0 otherwise.

[7] = parameters: method as in earlier work; conditions: ref Johnson et al., 2004, Kisanga et al., Lim et al., 2005, Mürdter et al., 2011, Gjerde et al., 2012; cited from earlier work
[8] = interindividual variability, final model
[9] = interoccasion variability, final model
[10] = 20 mg dose group, across all studies, steady-state
[11] = fractional change of endoxifen formation vs AS 2

change in endoxifen formation [3]: −65% | IIV CL23/F [4, 8]: 47.2 % CV | IIV CL23/F, variance estimate [4, 8]: 0.201 | IOV CL23/F, variance estimate [4, 9]: 0.0289 | IOV CL23/F ([4]; interoccasion variability, final model (SSRI effect included)): 17.1 % CV | CL23/F (Ref.) ([4]; relative formation of endoxifen, reference patient: CYP2D6 AS 2, 65 years, no rifampicin or SSRI): 0.493 L/h | IIV CL23/F before covariate inclusion ([4]; without CYP2D6 AS and SSRI covariates): 63.3 % CV | IOV CL23/F before considering SSRI effect ([4]; without covariate): 26.4 % CV | %CVgeom of Css,min [5, 10]: 84.4% | median Css,min [5, 10]: 10.7 ng/mL | range of Css,min [5, 10]: 0.70 to 45.5 ng/mL | overall risk of subtarget endoxifen concentrations, observed ([5]; observed population of PK database, CSS,min below 5.97 ng/mL): 28.9% | fractional decrease from CL23/F reference value ([6]; AS 1): 32.3% | fractional decrease from CL23/F reference value ([6]; AS 1.5): 21.1% | CL23/F_AS: 0 [6, 11]: −0.722 | CL23/F_AS: 0.5 [6, 11]: −0.510 | CL23/F_AS: 1 [6, 11]: −0.323 | CL23/F_AS: 1.5 [6, 11]: −0.211 | CL23/F_AS: 2.5-3 [6, 11]: 0.533 | reduced endoxifen formation efficiency CL23/F ([6]; intermediate metabolizers (AS: 0.5) vs AS 2): 51.0% | reduced endoxifen formation efficiency CL23/F ([6]; poor metabolizers (AS: 0) vs AS 2): 72.2% | increased CL23/F ([6]; ultrarapid metabolizer (AS ≥ 2.5) vs AS 2): 53.3%
SMILES: CC/C(=C(\c1ccc(O)cc1)c1ccc(OCCNC)cc1)c1ccccc1 [endoxifen, 4-hydroxy-N-desmethyl-tamoxifen]
CL30/F ([1]; relative clearance of endoxifen): 5.1 L/h and 5.10 fixed L/h | VENDX/F ([1]; relative volume of distribution of endoxifen): 400 L and 400 fixed L | hazard ratio of the endoxifen exposure-response relationship ([2]; ref Madlensky et al. (2011)): 0.71 | reduced risk of breast cancer recurrence related to endoxifen threshold concentration ([2]; ref Madlensky et al., 2011, Saladores et al., 2015): 26% | breast cancer patients not reaching proposed target endoxifen concentrations ([2]; tamoxifen standard dosing, ref Madlensky et al., 2011): ~20% | potency relative to parent tamoxifen [7]: 100 fold

SMILES: CC/C(=C(\c1ccccc1)c1ccc(OCCN(C)C)cc1)c1ccccc1 [tamoxifen, reference compound]
ka ([4]; absorption rate constant, oral tamoxifen): 1.78 h⁻¹ | IIV CL20/F, variance estimate [4, 8]: 0.148 | IOV CL20/F, variance estimate [4, 9]: 0.0222 | total ISV before covariate introduction ([4]; interstudy variability): 31.2 % CV | total ISV upon covariate introduction ([4]; interstudy variability): 16.1 % CV | tlag ([4]; lag time): 0.389 h | VTAM/F ([4]; relative central volume of distribution, reference patient): 1120 L | CL20/F (Ref.) ([4]; relative clearance of tamoxifen, reference patient: CYP2D6 AS 2, 65 years, no rifampicin or SSRI): 5.77 L/h | IOV CL20/F before implementing rifampicin effect ([4]; without covariate): 24.9 % CV | range of Css,min [5, 10]: 3.05 to 448 ng/mL
